The record followed here is US8273766B2, “Tetrahydroisoquinoline compound” (Kowa Company, Ltd., priority 2007, dated 2012).

What is called IC50 is the concentration that gives 50% inhibition.

For this test, the target named is T1, CCR3 (Cavia porcellus, UniProt Q9Z2I3).
T1 construct: from tissue; host or cells: peritoneal eosinophils of polymyxin B-treated male Hartley guinea pigs (Japan SLC, Inc.)
T1 sequence (Q9Z2I3 1-358): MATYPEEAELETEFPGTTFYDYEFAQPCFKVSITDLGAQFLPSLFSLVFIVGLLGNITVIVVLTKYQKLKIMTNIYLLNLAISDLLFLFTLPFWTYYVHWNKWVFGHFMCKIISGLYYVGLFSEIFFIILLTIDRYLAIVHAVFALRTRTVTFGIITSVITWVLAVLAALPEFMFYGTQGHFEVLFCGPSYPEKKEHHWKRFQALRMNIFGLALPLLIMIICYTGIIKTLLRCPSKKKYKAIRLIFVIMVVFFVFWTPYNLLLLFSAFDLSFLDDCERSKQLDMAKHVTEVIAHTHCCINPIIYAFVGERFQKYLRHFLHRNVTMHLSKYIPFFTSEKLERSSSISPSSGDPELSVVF
Nature of the test: CCR3 antagonistic action: eotaxin-induced migration of guinea pig eosinophils (chemotaxis chamber). Format: cell-based. The following applies: inhibition of migration of guinea pig eosinophils toward guinea pig eotaxin 100 ng/mL; 30 min pretreatment at 37° C., 1 hour reaction. The method, then:
Test Example 1 Test of a CCR3 Antagonistic Action
Guinea pig eosinophils were prepared with reference to a literature (Pinkus, Blood. 52 (1978) 127-134). That is, to a six-week old male Hartley guinea pig (Japan SLC, Inc.) was intraperitoneally injected polymyxin B (SIGMA) diluted with PBS (−) at 2 mg per animal once a week. After repeating the same operation four times for 24 hours, the abdominal cavity of each individual under anesthesia with diethyl ether was injected with 50 mL of PBS (−) containing 6 U/mL of heparin and 1 mM EDTA, and the liquid was collected. It was washed with PBS (−) containing 1 mM EDTA, and the cells were suspended in a Percoll solution having a specific density of 1.070 were centrifuged using a discontinuous Percoll gradient liquid to obtain an eosinophilic crude fraction. After washing with PBS (−), they were suspended in RPMI-1640 culture medium (SIGMA) containing 1% FCS, and cultured in a CO2 incubator overnight. Next day, the cells were harvested, a compound to be tested was added to the eosinophils suspended in the RPMI-1640 culture medium containing 0.1% BSA (bovine serum albumin, SIGMA), and then pretreatment was performed by leaving it to stand still at 37° C. for 30 minutes. A mixed liquid of guinea pig eotaxin (Chemical Synthesis Services) and the compound to be tested that had been prepared to be at a final concentration of 100 ng/mL was added into a lower chamber of 96-well chemotaxis chambers (Neuroprobe), and then a mixed liquid of 12.0×10^5 eosinophils per well and the compound to be tested was sequentially set in an upper chamber of a polycarbonate filter (Neuroprobe) having a pore size of 5 μm after completion of the treatment with polyvinyl pyrrolidone (PVP), and allowed to undergo a reaction in a CO2 incubator for 1 hour. After completion of the reaction, the filter was taken out, the cells were stained in a Diff-Quik stain kit (International Reagents Co., Ltd.), and the migrated eosinophils were microscopically counted. Five fields of view per well were counted, and an average value of the counts was taken as a count of migrated eosinophils.
On to `COCCNc1ccc(CNCCN2Cc3ccc(F)cc3CC2Cc2ccc(F)cc2)cc1` (stereo not drawn) [Example 150, 4-[[2-[6-fluoro-3-(4-fluorobenzyl)-3,4-dihydroisoquinolin-2(1H)-yl]ethylamino]methyl]-N-(2-methoxyethyl)aniline], for which the concentration for half-maximal inhibition (IC50) came out at 0.004 µM.
Take `CC(C)Nc1ccc(CNCCN2Cc3cc(F)ccc3CC2Cc2ccc(F)cc2)cc1` (stereo not drawn) [Example 161, 4-[[2-[7-fluoro-3-(4-fluorobenzyl)-3,4-dihydroisoquinolin-2(1H)-yl]ethylamino]methyl]-N-isopropylaniline]: the IC50 is 0.025 µM.
In the case of `CS(=O)(=O)Nc1cccc(CNCCN2Cc3ccc(F)cc3CC2Cc2ccc(Cl)cc2)c1` (stereo not drawn) [Example 157, N-(3-methanesulfonylaminobenzyl)-2-[3-(4-chlorobenzyl)-6-fluoro-3,4-dihydroisoquinolin-2(1H)-yl]ethanamine] it was 0.025 µM; in that of `CC(C)(O)c1ccc(CNCCN2Cc3ccc(F)cc3CC2Cc2ccc(F)cc2)cc1` (stereo not drawn) [Example 154, N-[4-(1-hydroxy-1-methylethyl)benzyl]-2-[6-fluoro-3-(4-fluorobenzyl)-3,4-dihydroisoquinolin-2(1H)-yl]ethanamine], 0.02 µM; in that of `CC(=O)c1cccc(CNCCN2Cc3ccccc3CC2Cc2ccc(F)cc2)c1` (stereo not drawn) [Example 106, N-(3-acetylbenzyl)-2-[3-(4-fluorobenzyl)-3,4-dihydroisoquinolin-2(1H)-yl]ethanamine], 0.007 µM.
With `Fc1ccc(CC2Cc3ccccc3CN2CCNCc2ccncc2)cc1` (stereo not drawn) [Example 171, N-(pyridin-4-yl)methyl-2-[3-(4-fluorobenzyl)-3,4-dihydroisoquinolin-2(1H)-yl]ethanamine], the IC50 came to 0.014 µM.
In the case of `CC(C)Nc1ccc(CNCCN2Cc3ccc(F)cc3CC2Cc2ccc(F)cc2)cc1` (stereo not drawn) [Example 138, 4-[[2-[6-fluoro-3-(4-fluorobenzyl)-3,4-dihydroisoquinolin-2(1H)-yl]ethylamino]methyl]-N-isopropylaniline] it was 0.004 µM; in that of `CC(C)(C)c1ccc(CNCCN2Cc3ccc(F)cc3CC2Cc2ccc(Cl)cc2)cc1` (stereo not drawn) [Example 156, N-(4-tert-butylbenzyl)-2-[3-(4-chlorobenzyl)-6-fluoro-3,4-dihydroisoquinolin-2(1H)-yl]ethanamine], 0.08 µM; in that of `CC(C)(C)c1ccc(CNCCN2Cc3ccccc3CC2Cc2ccc(F)cc2)cc1` (stereo not drawn) [Example 96, N-(4-tert-butylbenzyl)-2-[3-(4-fluorobenzyl)-3,4-dihydroisoquinolin-2(1H)-yl]ethanamine], 0.03 µM.
On to `CS(=O)(=O)Nc1cccc(CNCCN2Cc3ccc(F)cc3CC2Cc2ccc(F)cc2)c1` (stereo not drawn) [Example 126, N-[3-(methanesulfonylamino)benzyl]-2-[6-fluoro-3-(4-fluorobenzyl)-3,4-dihydroisoquinolin-2(1H)-yl]ethanamine], for which the concentration for half-maximal inhibition (IC50) was 0.001 µM.
`Fc1ccc(CC2Cc3cc(F)ccc3CN2CCNCc2ccncc2)cc1` (stereo not drawn) [Example 180, N-(pyridin-4-yl)methyl-2-[6-fluoro-3-(4-fluorobenzyl)-3,4-dihydroisoquinolin-2(1H)-yl]ethanamine]: the IC50 was 0.002 µM.
Then `CCNc1ccc(CNCCN2Cc3ccc(F)cc3CC2Cc2ccc(F)cc2)cc1` (stereo not drawn) [Example 139, 4-[[2-[6-fluoro-3-(4-fluorobenzyl)-3,4-dihydroisoquinolin-2(1H)-yl]ethylamino]methyl]-N-ethylaniline], with 0.04 µM.
